# Measured values as given in publication doi:10.1101/866475v1, “α1A-adrenoceptor inverse agonists and agonists modulate receptor signalling through a conformational selection mechanism” (biorxiv, 2019).
# Key:
# [1] = target: T1, α1A-AR-A4 (and its variants α1A-AR-A4 (L312F), α1A-AR-A4-active) (Homo sapiens, UniProt P35348, C14S/T15I/L36I/I65V/N67Y/L80M/F86Y/G127A/G143A/W151F/E171V/F312L/N322K/P327L/S329Y); assay: QAPB competition binding, purified immobilised receptor (KingFisher); details: 10 nM QAPB, 20 mM HEPES pH 7.5, 100 mM NaCl, 0.02% DDM, 22 °C, 2 h
# T1 construct: gene ADRA1A; thermostabilised, C-terminus truncated at Ser351 plus A and His10
# T1 sequence (P35348 2-351 C14S/T15I/L36I/I65V/N67Y/L80M/F86Y/G127A/G143A/W151F/E171V/F312L/N322K/P327L/S329Y): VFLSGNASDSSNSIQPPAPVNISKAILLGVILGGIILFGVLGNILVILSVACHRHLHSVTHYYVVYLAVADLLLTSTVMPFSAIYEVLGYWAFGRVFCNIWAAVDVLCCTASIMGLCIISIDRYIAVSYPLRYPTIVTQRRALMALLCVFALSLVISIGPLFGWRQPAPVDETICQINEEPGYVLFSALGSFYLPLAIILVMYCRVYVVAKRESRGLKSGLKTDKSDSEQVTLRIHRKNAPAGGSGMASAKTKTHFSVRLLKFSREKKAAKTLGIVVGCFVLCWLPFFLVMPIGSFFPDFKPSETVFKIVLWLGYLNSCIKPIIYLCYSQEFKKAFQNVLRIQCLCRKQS
# WT α1A-AR = target: T2, WT α1A-AR (Homo sapiens, UniProt P35348); format: cell-based; details: inverse agonist; 100 nM
# T2 construct: gene ADRA1A; wild type, pcDNA3.1, expressed in COS-7 cells
# T2 sequence (P35348 1-466): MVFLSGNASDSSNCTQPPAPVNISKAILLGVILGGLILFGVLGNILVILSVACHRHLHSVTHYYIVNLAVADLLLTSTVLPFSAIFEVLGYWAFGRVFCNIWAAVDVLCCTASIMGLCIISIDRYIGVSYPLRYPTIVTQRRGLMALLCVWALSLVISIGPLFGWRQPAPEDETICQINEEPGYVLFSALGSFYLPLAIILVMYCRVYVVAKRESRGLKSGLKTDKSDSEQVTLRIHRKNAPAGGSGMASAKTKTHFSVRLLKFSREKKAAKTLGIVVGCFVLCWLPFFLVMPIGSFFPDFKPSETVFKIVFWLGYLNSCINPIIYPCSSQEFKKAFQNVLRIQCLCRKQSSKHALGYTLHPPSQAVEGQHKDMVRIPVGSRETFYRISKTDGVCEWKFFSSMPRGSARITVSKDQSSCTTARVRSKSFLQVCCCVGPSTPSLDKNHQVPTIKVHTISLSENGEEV
Ki [1],SMILES,"NanoBiT Gq split-luciferase assay, COS-7 (WT α1A-AR)"
7.6 ± 3.4 nM,COc1cccc(OC)c1OCCNCC1COc2ccccc2O1 (stereo not drawn) [WB-4101],–
8.4 ± 1.9 nM,C[C@H](Cc1cc2c(c(C(N)=O)c1)N(CCCO)CC2)NCCOc1ccccc1OCC(F)(F)F [Silodosin],–
–,COc1cc2nc(N3CCN(C(=O)c4ccco4)CC3)nc(N)c2cc1OC [Prazosin],"inverse agonism of prazosin, WB-4101, phentolamine and silodosin at WT α1A-AR-expressing COS-7 cells"
